From ChEMBL document CHEMBL4339213, “Microwave-assisted synthesis and in vitro stability of N-benzylamide non-steroidal anti-inflammatory drug conjugates for CNS delivery” (Bioorg Med Chem Lett, 2019)

What was measured:
[1] = Half life in pH 7.4 PBS at 125 uM incubated at 37 degC by HPLC analysis; format: physicochemical
[2] = Half life in human plasma at 125 uM by HPLC analysis; format: ADME, cell-free
[3] = Drug metabolism in human plasma assessed as release of the NSAID by LC-MS analysis; format: ADME, cell-free
[4] = Half life in human plasma at 100 uM by HPLC analysis; format: ADME, cell-free
[5] = Half life in human plasma; format: ADME, cell-free

SMILES | half-life at 125 µM [1] [h] | half-life at 125 µM [2] [min] | Drug metabolism [3] | half-life at 100 µM [4] [h] | half-life [5] [h]
COc1ccc2cc([C@H](C)C(=O)OCCC(=O)NCc3ccccc3)ccc2c1 | > 48 | 4.7 | Metabolite_Detected |  | 
CC(C)Cc1ccc(C(C)C(=O)OCCC(=O)NCc2ccccc2)cc1 (stereo not given) | > 48 |  | Metabolite_Detected |  | 
CC(C(=O)OCCC(=O)NCc1ccccc1)c1ccc(-c2ccccc2)c(F)c1 (stereo not given) | > 48 |  | Metabolite_Detected | 1.83 | 
COc1ccc2c(c1)c(CC(=O)OCCC(=O)NCc1ccccc1)c(C)n2C(=O)c1ccc(Cl)cc1 |  |  | Metabolite_Detected |  | > 3.6
